Reference: US20210087163A1, “PHENOXY THIOPHENE SULFONAMIDES AND OTHER COMPOUNDS FOR USE AS INHIBITORS OF BACTERIAL GLUCURONIDASE” (NORTH CAROLINA CENTRAL UNIVERSITY, priority 2010, published 2021)
Entries after “also recorded” stand apart in the source; their conditions may differ. Like-named read-outs stand apart in the source and are kept apart here.

How the values were obtained:
[1] = target: E. coli β-glucuronidase (Escherichia coli, UniProt P05804); assay: biochemical
[2] = target: E. coli GUS (Escherichia coli, UniProt P05804); assay: GUS enzyme assay, manual version (purified E. coli GUS, 4MUG); format: biochemical
Chain of E. coli GUS (P05804 whole entry): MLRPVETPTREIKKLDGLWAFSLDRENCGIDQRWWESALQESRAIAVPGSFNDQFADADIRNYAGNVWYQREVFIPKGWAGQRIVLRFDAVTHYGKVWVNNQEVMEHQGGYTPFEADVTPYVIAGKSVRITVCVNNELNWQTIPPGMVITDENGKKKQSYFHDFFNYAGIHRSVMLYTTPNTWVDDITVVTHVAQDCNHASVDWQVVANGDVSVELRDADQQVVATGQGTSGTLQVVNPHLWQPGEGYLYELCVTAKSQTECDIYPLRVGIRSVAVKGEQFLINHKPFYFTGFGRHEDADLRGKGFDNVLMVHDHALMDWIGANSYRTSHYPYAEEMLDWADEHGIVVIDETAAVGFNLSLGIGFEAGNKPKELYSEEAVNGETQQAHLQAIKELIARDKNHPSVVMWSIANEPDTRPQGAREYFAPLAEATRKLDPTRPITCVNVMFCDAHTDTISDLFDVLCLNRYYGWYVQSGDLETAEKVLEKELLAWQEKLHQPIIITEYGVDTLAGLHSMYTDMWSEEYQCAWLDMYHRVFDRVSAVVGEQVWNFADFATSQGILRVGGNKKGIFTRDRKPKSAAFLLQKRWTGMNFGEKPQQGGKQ
Description: The semi-automated GUS high throughput enzyme assay was performed as previously described and was used to screen the Prestwick Chemical Collection. The follow-up studies were performed manually in a similar manner with the exception of plate type and volumes, as briefly outlined here. Compound stock solutions were made in 100% DMSO. […] Final concentrations in the assembled assay were 50 mM HEPES. pH 7.4, 0.01% Triton X-100, 1% DMSO. […] The enzyme reaction was allowed to proceed for 20 minutes at 23° C., and was terminated by the addition of 40 μl of a 1M sodium carbonate solution. […] Fluorescence data, expressed in relative fluorescence units (RFU), were normalized to DMSO (100% activity) and “no enzyme” (0% activity) controls as maximum and minimum responses, respectively. The Bovine taurus GUS enzyme assay was performed in an identical manner except Bovine taurus GUS enzyme (1 nM) was used instead of bacterial GUS. The IC50 values and Hill slopes were calculated from concentration response data using GraphPad Prism software (GraphPad Software Inc., La Jolla, Calif.) employing either four-parameter or a three parameter (fixed bottom) curve fit.

[3] = target: endogenous GUS activity in whole E. coli cells (Escherichia coli, UniProt P05804); assay: GUS cell based assay (whole E. coli cells, 4MUG); settings: for potency shift, less potent in the cell-based assay compared to the enzyme assay: less potent in cells
Chain of endogenous GUS activity in whole E. coli cells (P05804 whole entry): as above
Description: An E. coli cell based assay was developed in order to assess the activity of these drugs against whole cells, instead of purified enzyme. We took advantage of the well-known specificity and sensitivity of the 4MUG substrate to detect GUS activity in E. coli cells. This assay mimicked the enzyme assay in format, with the GUS enzyme replaced by live log-phase E. coli cells and the assay incubated for a longer time (2 hr) to detect GUS activity in these un-modified cells.
Cultures of E col (DH5α) carrying the empty expression vector pCMV5 were grown over night in LB containing carbenicilin (50 μM) and then used to initiate fresh LB/carbenicillin cultures adjusted to an initial OD of 0.1. These cultures were allowed to reach an OD of 0.6 and then washed twice with 50 mM HEPES, pH 7.4 containing carbenicillin 50 μM, and concentrated by centrifugation to an OD of 1 for use in the assay. The GUS cell based assay was performed in an identical manner as the enzyme assay except the Triton X-100 was left out of the assay buffer, the E. coli cells replaced the enzyme and the reaction was allowed to proceed for 2 hrs at 37° C. The resulting data was analyzed as outlined for the enzyme assay.

[4] = target: T1, mammalian GUS purified from Bovine taurus liver (Bos taurus, UniProt A3KMY8); assay: Bovine taurus GUS enzyme assay; format: biochemical
T1 sequence (A3KMY8 1-652): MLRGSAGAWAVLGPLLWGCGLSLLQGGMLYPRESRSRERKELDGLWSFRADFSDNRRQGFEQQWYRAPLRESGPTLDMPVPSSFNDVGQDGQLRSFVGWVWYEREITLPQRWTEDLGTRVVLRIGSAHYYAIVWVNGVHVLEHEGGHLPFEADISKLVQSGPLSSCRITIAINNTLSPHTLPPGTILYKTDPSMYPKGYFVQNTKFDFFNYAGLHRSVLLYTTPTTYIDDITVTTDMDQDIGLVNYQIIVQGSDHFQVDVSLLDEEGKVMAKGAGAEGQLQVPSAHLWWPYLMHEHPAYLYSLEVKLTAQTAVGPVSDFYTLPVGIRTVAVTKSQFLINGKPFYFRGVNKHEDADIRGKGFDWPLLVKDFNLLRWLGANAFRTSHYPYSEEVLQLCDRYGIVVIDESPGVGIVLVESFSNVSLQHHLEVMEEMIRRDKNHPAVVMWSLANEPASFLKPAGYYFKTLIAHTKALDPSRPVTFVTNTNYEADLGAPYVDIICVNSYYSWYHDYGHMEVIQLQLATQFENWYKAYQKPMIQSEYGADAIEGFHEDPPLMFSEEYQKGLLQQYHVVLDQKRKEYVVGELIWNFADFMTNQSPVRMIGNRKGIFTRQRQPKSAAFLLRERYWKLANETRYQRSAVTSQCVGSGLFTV

[5] = test system: E. coli cells; assay: microbe, parasite or virus in culture; settings: Escherichia coli, 2 h
[6] = target: monoamine oxidase; settings: read-out: reported in vitro IC50 for inhibiting monoamine oxidase; rat brain homogenates; cited from earlier work
[7] = test system: MAO; settings: read-out: reported IC50 for MAO; depending on subclass of MAO-A or MAO-B, or total activity; cited from earlier work
[8] = running text, read-out: IC50 in the E. coli cell-based assay
[9] = running text, read-out: average IC50 in the E. coli GUS enzyme assay

Chain of E. coli β-glucuronidase (P05804 whole entry): as the sequence (P05804 whole entry) above

Work on CC1(C)Cc2cccc(Oc3ccc(S(=O)(=O)NCc4cccc5ccccc45)s3)c2O1 [BRITE-354502] yielded an IC50 ([1]; read-out: IC50, β-Glucuronidase Inhibitory activity of phenoxythiophene sulfonamides) of 965 µM.
With Cc1cc(C(=O)NNCc2ccccc2)no1 [Isocarboxazid, isocarboxazid] the IC50 ([2]; average of at least three determinations, read-out: E. coli GUS Enzyme Assay IC50 ± SD) was 0.128 ± 0.056 µM, the IC50 [3, 8] was 0.336 ± 0.12 µM and the “activity against purified mammalian GUS, in words” value [4] was “no significant activity; also recorded: do not inhibit”.
NC[C@H]1O[C@H](O[C@H]2[C@H](O)[C@@H](O[C@H]3O[C@H](CO)[C@@H](O)[C@H](N)[C@H]3O)[C@H](N)C[C@@H]2N)[C@H](O)[C@@H](O)[C@@H]1O [Kanamycin] gave an inhibition at 50 µg/mL ([5]; read-out: reduction of activity in the viability assay) greater than 90%.
With OC(c1cc(C(F)(F)F)nc2c(C(F)(F)F)cccc12)C1CCCCN1 (stereo not drawn) [Mefloquine, mefloquine] the IC50 ([2]; listed as mefloquine hydrochloride, read-out: average IC50 in the E. coli GUS enzyme assay) was 1.21 µM, the “potency shift, less potent in the cell-based assay compared to the enzyme assay” value (“potency shift, less potent” for short) [3] was “over 4.9 fold” and the “potency shift, less potent” value ([3]; listed as mefloquine) was 5 fold. It also gave an IC50 ([3]; read-out: IC50 in the E. coli cell-based assay) of 6 µM and a viability at 10 µM ([5]; read-out: viability of E. coli) of 100%.
In the case of O=C(CCNNC(=O)c1ccncc1)NCc1ccccc1 [Nialamide, nialamide], the IC50 [6] is listed as 2.6 to 13 µM, the IC50 [2, 9] is listed as 0.071 µM and the “potency shift, more potent in the cell-based assay compared to the E. coli GUS enzyme assay” value ([3]; more potent in cells) is listed as 4 fold. The IC50 [3, 8] was 0.017 µM, the “activity against purified mammalian GUS, in words” value [4] was “no significant activity; also recorded: do not inhibit” and the IC50 ([4]; average of at least three determinations, read-out: B. taurus GUS Enzyme Assay IC50 ± SD) was 74.8 µM. For the same compound, the IC50 ([4]; running text, read-out: IC50 against purified mammalian GUS) was roughly 75 µM.
NNCCc1ccccc1 [Phenelzine, phenelzine] showed an IC50 ([2]; running text, listed as phenelzine, read-out: average IC50 in the E. coli GUS enzyme assay) of 2.28 µM, an IC50 [2, 9] of 2.2 µM and an IC50 ([3]; average of at least three determinations, 2 hrs at 37° C., read-out: E. coli Cell-Based Assay IC50 ± SD) of 7.12 µM. For the same compound, the “potency shift, less potent” value [3] was 2.6 fold, the IC50 [7] was 0.07 to 0.9 µM and the “inhibition in the Prestwick collection screen” value ([1]; 10 µM) was greater than 50%. The inhibition at 10 µM ([1]; read-out: inhibition in the Prestwick collection screen) was 62%.
